From patent US8865672B2, “Prevention of tissue ischemia and related methods” (The United States of America, as represented by the …, priority 2006, dated 2014)
pIC50: −log10 of the molar value. Peptide text beside a SMILES is read from it.

Key:
NO/cGMP signaling = assay: cGMP signaling (NO-stimulated cGMP, immunoassay); format: cell-based, human; details: concentration for 50% inhibition of effect
Procedure: Vascular cells (endothelial) or HT-1080 cells (10^4 cells/well) grown overnight in 12-well culture in SM-GM containing 2% FCS or RPMI+10% FCS respectively and then weaned off serum over 48 h before treatment with NO donors and other agents in serum/additive free medium+0.1% BSA. Intracellular cGMP levels were determined using an enzyme immunoassay (Amersham, GE Health Care, UK). In other experiments fresh washed human platelets were incubated in Tyrode's buffer and the indicated treatment agents±NO and cGMP determined.

human platelets [1] = assay: Thrombin-induced human platelet aggregation; format: cell-based; details: DEA/NO 10 μM
Procedure: Platelets were pelleted from platelet-rich plasma (PRP) by centrifugation for 10 minutes at 200 g. They were then washed with acid citrate dextrose (ACD) (85 mM citric acid, 65 mM sodium citrate, 100 mM glucose, pH 5.1) at a ratio of 1:7 at room temperature. After pelleting the platelets again and removing the supernatant, the platelets were resuspended in 5 mL of Tyrode's buffer (137 mM NaCl, 3 mM KCl, 12 mM NaHCO3, 0.3 mM NaHPO4, 2 mM CaCl2, 1 mM MgCl2, 5.5 mM glucose, 5 mM HEPES, 3.5 mg/mL BSA, pH 7.4). The final platelet number was adjusted to […] in 500 μl/cuvette of Tyrode's buffer.
Aggregation of human platelets under high shear conditions was assessed using a standard optical aggregometer (Lumi-Dual Aggregometer, Chrono-Log Corp., Havertown, Pa.) at 37° C. and 1200 rpm in a volume of 500 μl buffer with a final platelet concentration of 2×10^5 platelets/μl over a 5 minute interval. Pre-incubation with TSP1 and TSP1-based agents was for 15 minutes prior to addition of thrombin and/or the rapidly releasing nitric oxide donor DEA/NO. In some experiments platelets were pre-incubated with the Rap1 inhibitor GGTI-298 (10 μM) (Calbiochem, La Jolla, Calif.) for 30 minutes prior to initiating aggregation. In other high shear aggregation experiments murine platelets were prepared as above with the following modifications. Mouse blood was collected by retro-orbital bleeding of anesthetized mice using heparinized tubes. PRP was prepared and then diluted with 4 vol. of Tyrodes containing 5 mM EDTA to prevent activation. After collection by centrifugation, platelets were resuspended in 2× initial PRP volume and held at room temperature for less than 1 hour before use. Aggregation conditions consisted of 250 μL of washed platelets stirred at 1200 rpm in a Chronolog Optical aggregometer at 37° C. DEA/NO (10 μM) was added 30 seconds prior to activation and 8-BrcGMP added 15 min prior to activation with 0.2 U/ml human thrombin. Data was collected using Chronolog “Aggrolink” software. Platelet aggregation under static conditions was assessed using a spectrophotometer (Beckman DU 640, Beckman Coulter, Fullerton, Calif.) and determined as a change in absorbance at 400 nm with continuous observation over a five minute interval. The cuvette was inverted once every 60 seconds. Pre-incubation with TSP1 and TSP1-based agents was for 15 minutes prior to addition of thrombin and/or DEA/NO to minimize the formation of thrombin-serpinthrombospondin complexes (Chang & Detwiler, Arch Biochem Biophys. 299:100-104, 1992), which interfere with thrombin-platelet interactions.
Fresh human platelets were suspended in Tyrode's buffer and under low shear conditions thrombin-stimulated aggregation measured as described. Platelets were then treated with peptide C6d (1 μM)±NO (10 μM DEA/NO) and thrombin and aggregation measure.

human platelets [2] = assay: cGMP in human platelets; format: cell-based; details: washed human platelets in Tyrode's buffer
Procedure: Fresh human platelets at 2×10^5 platelets/μl in Tyrode's buffer or PRP were pre-incubated with the indicated agents for 15 minutes and then challenged with DEA/NO for the indicated time interval at room temperature and total cGMP determined via immunoassay (Amersham, GE Healthcare, Buckinghamshire, UK). Murine WT and TSP1-null platelets were treated with DEA/NO and cGMP flux measured.

HUVEC = assay: NO-stimulated HUVEC adhesion on type I collagen; format: cell-based, human; details: DEA/NO 10 μM, 1 h
Procedure: Cell adhesion was carried out in 96-well culture plates. After pre-coating wells with type I collagen (3 μg/ml in DPBS) harvested cells were plated at a density of 1×10^4 cells/well in medium plus 0.1% BSA and treatment agents and incubated in 5% CO2 for 1 h. Wells were washed with PBS and cells fixed with 1% glutaraldehyde for 10 min., washed and stained with 1% crystal violet for 20 min. Excess stain was rinsed away, adherent cells treated with 10% acetic acid, and plates read at 570 nm.

[3] = tested on: blood pressure and pulse in mice; assay: Blood pressure and pulse measurements (tail cuff); format: in vivo, mouse
Procedure: Mean systolic, diastolic and arterial blood pressure (BP) and mean pulse was measured in age and sex matched mice using a computerized tail cuff system (Hatteras Systems, MC4000 Blood Pressure Analysis System, Cary, N.C.). The mice were allowed to acclimate to the apparatus for 5 min prior to the start of measurement. Each animal underwent a cycle of 10 preliminary and 50 experimental pressures measurements for data acquisition and data calculation. Animals were acclimated to the measuring system and protocol for 4 days with treatment with data acquisition being performed on the 5th day. Pressures recordings were performed at the same time each day. Data was accepted if the mouse had valid readings for at least 20 consecutive pulse beats. All studies were performed at the same hour each day.
Respirations were monitored continuously monitored by direct observation of the animal. Body core temperature was measured via rectal probe. Temperature control was performed using a water-circulating warming surface and heating lamp. Following a 15 minute period of stabilization mean systolic, diastolic and arterial blood pressure and mean pulse measurements were determined.

Molecule: CC[C@H](C)[C@H](N)C(=O)NCC(=O)N[C@@H](Cc1c[nH]c2ccccc12)C(=O)N[C@@H](CCCCN)C(=O)N[C@@H](CCC(=O)O)C(=O)N[C@@H](Cc1ccccc1)C(=O)N[C@H](C(=O)N[C@@H](C)C(=O)N[C@@H](Cc1ccc(O)cc1)C(=O)N[C@@H](CCCNC(=N)N)C(=O)O)[C@@H](C)O [compound 37415, IGWKEFTAYR] (H-IGWKEFTAYR-OH)
- pIC50 (NO/cGMP signaling): 6.00

Molecule: FIRVAIYEGKK [compound 605, control peptide for 7N3]
- NO delay of thrombin-induced platelet aggregation (human platelets [1]; high shear, thrombin 0.2 U/ml): no effect

Molecule: KRFKQDGGWSHWSPWSS [p246]
- NO delay of thrombin-induced platelet aggregation (human platelets [1]; static / low shear conditions): inactive

Molecule: CC[C@H](C)[C@H](N)C(=O)NCC(=O)N[C@@H](Cc1ccc(O)cc1)C(=O)N[C@@H](CCCCN)C(=O)N[C@@H](CC(=O)O)C(=O)N[C@@H](Cc1ccccc1)C(=O)N[C@H](C(=O)N[C@@H](C)C(=O)N[C@@H](Cc1ccc(O)cc1)C(=O)N[C@@H](CCCNC(=N)N)C(=O)O)[C@@H](C)O [compound 37417, IGYKDFTAYR] (H-IGYKDFTAYR-OH)
- pIC50 (NO/cGMP signaling): ~7.00

Molecule: E123CaG-1: recombinant C-terminal domains of TSP1
- NO delay of thrombin-induced platelet aggregation (human platelets [1]; high shear, thrombin 0.2 U/ml): blocked the ability of NO to delay thrombin-induced aggregation
- NO delay of thrombin-induced platelet aggregation (human platelets [1]; static / low shear conditions): reversed the NO delay of aggregation under static conditions
- NO stimulated cGMP in platelets (human platelets [2]): inhibited NO stimulated cGMP flux

Molecule: FIRGGMYEGKK [compound 604, control peptide for 7N3]
- NO delay of thrombin-induced platelet aggregation (human platelets [1]; high shear, thrombin 0.2 U/ml): no effect

Molecule: fibrinogen
- NO delay of thrombin-induced platelet aggregation (human platelets [1]; high shear, thrombin 0.2 U/ml): no significant effect

Molecule: CC[C@H](C)[C@H](N)C(=O)NCC(=O)N[C@@H](Cc1c[nH]c2ccccc12)C(=O)N[C@@H](CCCCN)C(=O)N[C@@H](CC(=O)O)C(=O)N[C@@H](Cc1ccccc1)C(=O)N[C@@H](C)C(=O)N[C@@H](C)C(=O)N[C@@H](Cc1ccc(O)cc1)C(=O)N[C@@H](CCCNC(=N)N)C(=O)O [compound 37299, IGWKDFAAYR] (H-IGWKDFAAYR-OH)
- pIC50 (NO/cGMP signaling): < 5.00

Molecule: RFYVVMWK [4N1-1]
- NO-stimulated endothelial cell adhesion on type I collagen (HUVEC): inhibited NO-stimulated endothelial cell adhesion
- NO delay of thrombin-induced platelet aggregation (human platelets [1]; static / low shear conditions): prevented an NO-stimulated delay in platelet aggregation

Molecule: CC[C@H](C)[C@H](N)C(=O)NCC(=O)N[C@@H](Cc1c[nH]c2ccccc12)C(=O)N[C@@H](Cc1c[nH]cn1)C(=O)N[C@@H](CC(=O)O)C(=O)N[C@@H](Cc1ccccc1)C(=O)N[C@H](C(=O)N[C@@H](C)C(=O)N[C@@H](Cc1ccc(O)cc1)C(=O)N[C@@H](CCCNC(=N)N)C(=O)O)[C@@H](C)O [compound 37414, IGWHDFTAYR] (H-IGWHDFTAYR-OH)
- pIC50 (NO/cGMP signaling): < 5.00

Molecule: FC(F)OC(Cl)C(F)(F)F (stereo not shown) [isoflurane, Isoflurane]
- blood pressure under general anesthesia ([3]; TSP1-null animals): significant decreases in systolic, diastolic and mean arterial blood pressures
- blood pressure under general anesthesia ([3]; wild type mice): very modest overall drop in mean arterial pressure

Molecule: CC[C@H](C)[C@H](N)C(=O)NCC(=O)N[C@@H](Cc1c[nH]c2ccccc12)C(=O)N[C@@H](CCCCN)C(=O)N[C@@H](CC(=O)O)C(=O)N[C@@H](Cc1ccccc1)C(=O)N[C@H](C(=O)N[C@@H](C)C(=O)N[C@@H](C)C(=O)N[C@@H](CCCNC(=N)N)C(=O)O)[C@@H](C)O [compound 37555, IGWKDFTAAR] (H-IGWKDFTAAR-OH)
- pIC50 (NO/cGMP signaling): ~5.00

Molecule: KRFYVVMWKK [4N1K, derivative of the 4N1-1 peptide with terminal lysines]
- NO delay of thrombin-induced platelet aggregation (human platelets [1]; static / low shear conditions): prevented an NO-stimulated delay in platelet aggregation

Molecule: IGWKDFTAYK [compound 37554]
- cGMP signaling IC50 (NO/cGMP signaling): inactive

Molecule: C[C@H](N)C(=O)NCC(=O)N[C@@H](Cc1c[nH]c2ccccc12)C(=O)N[C@@H](CCCCN)C(=O)N[C@@H](CC(=O)O)C(=O)N[C@@H](Cc1ccccc1)C(=O)N[C@H](C(=O)N[C@@H](C)C(=O)N[C@@H](Cc1ccc(O)cc1)C(=O)N[C@@H](CCCNC(=N)N)C(=O)O)[C@@H](C)O [compound 37416, AGWKDFTAYR] (H-AGWKDFTAYR-OH)
- pIC50 (NO/cGMP signaling): ~6.00

Molecule: VTAGGGVQKRSRL [p906]
- NO-stimulated endothelial cell adhesion on type I collagen (HUVEC): inhibited NO-stimulated endothelial cell adhesion
- NO delay of thrombin-induced platelet aggregation (human platelets [1]; static / low shear conditions): reversed an NO-stimulated delay of platelet aggregation

Molecule: RFYGGMWK [p4N1G, control peptide, VVM substituted by GGM]
- NO-stimulated endothelial cell adhesion on type I collagen (HUVEC): did not significantly inhibit

Molecule: CC(=O)N[C@@H](Cc1c[nH]c2ccccc12)C(=O)N[C@@H](CCCCN)C(=O)N[C@@H](CC(=O)O)C(=O)N[C@@H](Cc1ccccc1)C(=O)N[C@H](C(=O)N[C@@H](C)C(=O)N[C@@H](Cc1ccc(O)cc1)C(=O)N[C@@H](CCCNC(=N)N)C(=O)O)[C@@H](C)O [compound 37300, Ac-WKDFTAYR] (Ac-WKDFTAYR-OH)
- pIC50 (NO/cGMP signaling): ~6.00

Molecule: CCCN(CCCN)/[N+]([O-])=N/O [PAPA/NO]
- mean arterial blood pressure response ([3]; CD47 null animals, i.p.): greatest drop in mean arterial blood pressure
- blood pressure response ([3]; TSP1 null versus wild type, i.p.): drop in mean arterial pressure always greater in the absence of TSP1
- mean pulse ([3]; after i.p. challenge): only modestly increased

Molecule: CC[C@H](C)[C@H](N)C(=O)NCC(=O)N[C@@H](Cc1c[nH]c2ccccc12)C(=O)N[C@@H](C)C(=O)N[C@@H](CC(=O)O)C(=O)N[C@@H](Cc1ccccc1)C(=O)N[C@H](C(=O)N[C@@H](C)C(=O)N[C@@H](Cc1ccc(O)cc1)C(=O)N[C@@H](CCCNC(=N)N)C(=O)O)[C@@H](C)O [compound 37413, IGWADFTAYR] (H-IGWADFTAYR-OH)
- pIC50 (NO/cGMP signaling): < 5.00

Molecule: IGWKAFTAYR [compound 37296]
- cGMP signaling IC50 (NO/cGMP signaling): inactive

Molecule: CC[C@H](C)[C@H](N)C(=O)NCC(=O)N[C@@H](Cc1c[nH]c2ccccc12)C(=O)N[C@@H](CCCCN)C(=O)N[C@@H](CC(N)=O)C(=O)N[C@@H](Cc1ccccc1)C(=O)N[C@H](C(=O)N[C@@H](C)C(=O)N[C@@H](Cc1ccc(O)cc1)C(=O)N[C@@H](CCCNC(=N)N)C(=O)O)[C@@H](C)O [compound 37297, IGWKNFTAYR] (H-IGWKNFTAYR-OH)
- pIC50 (NO/cGMP signaling): < 5.00

Molecule: fibronectin [reference compound]
- NO delay of thrombin-induced platelet aggregation (human platelets [1]; high shear, thrombin 0.2 U/ml): no significant effect
- NO stimulated cGMP in platelets (human platelets [2]): no inhibition
